≈ marks a conversion by molar mass, not a printed value. Where two headings read alike, the source gives them in different places.
Key:
[1] = tested on: store-operated calcium entry (SOCE) in HEK293 cells; experiment: SOCE inhibition, Fura-2 Ca2+ bioassay, thapsigargin-induced, HEK293 cells; format: cell-based, human; settings: for Inhibitory effect in immune cells compared with non-immune HEK293 cells: Jurkat vs HEK293 screening, 10 μM; for IC50: Homo sapiens
[2] = tested on: store-operated calcium entry (SOCE) in U937 monocytes; experiment: SOCE inhibition, Fura-2 Ca2+ bioassay, thapsigargin-induced, U937 cells; format: cell-based, human; settings: for IC50: Homo sapiens
[3] = tested on: store-operated calcium entry (SOCE) in RBL-2H3 rat mast cells; experiment: SOCE inhibition, Fura-2 Ca2+ bioassay, thapsigargin-induced, RBL-2H3 cells; format: cell-based; settings: for IC50: Rattus norvegicus
[4] = tested on: store-operated calcium entry (SOCE) in Jurkat T cells; experiment: SOCE inhibition, Fura-2 Ca2+ bioassay, thapsigargin-induced, Jurkat cells; format: cell-based, human; settings: for IC50: Homo sapiens; for Combinatory effect on SOCE inhibition when paired with CBGA / Effect on SOCE (Ca2+ signals), pure compounds / IC50 on SOCE relative to acidic variations: Jurkat cells; for Combinatory effect on SOCE inhibition when paired with CBGA: isobolographic analysis, pairs expected to inhibit 50%; for Effect on SOCE (Ca2+ signals), pure compounds: compounds at 10 μM, 1 μM thapsigargin; for IC50 on SOCE relative to acidic variations: dose response 0 to 30 μM
[5] = tested on: store-operated calcium entry (SOCE) in Luva human mast cells; experiment: SOCE inhibition, Fura-2 Ca2+ bioassay, thapsigargin-induced, Luva cells; format: cell-based; settings: for IC50: Homo sapiens, Mast cell, read-out: IC50 SOCE Luva
[6] = tested on: store-operated calcium entry (SOCE) in THP-1 cells; experiment: SOCE inhibition, combinatory (isobolographic) analysis, THP-1 cells; format: cell-based, human; settings: 10 μM cannabinoid plus 2.2 μM CBGA
[7] = tested on: store-operated calcium entry (SOCE) in THP-1 cells; experiment: as above; format: cell-based, human; settings: for Combinatory effect on SOCE inhibition when paired with CBGA: THP-1 cells, isobolographic analysis, pairs expected to inhibit 50%
Protocol: Bar graphs shown in FIGS. 10A-10Z and 10BB display SOCE amplitudes calculated from area under the curve (AUC) of the SOCE signals and normalized to SOCE in the presence of gadolinium. Combinatory effects were assessed using an isobolographic analysis approach, where CBGA was paired with another cannabinoid using concentrations of CBGA corresponding to 50%, 40%, 30%, 20%, 10%, and 0% inhibition (as derived from the IC50 curves of FIGS. 9A-9P) and combined with concentrations of the paired cannabinoid, so that each combination would be expected to inhibit 50% of the Ca^2+ signal (e.g., the CBGA concentration causing 50% inhibition was tested alone without the other cannabinoid, the CBGA concentration expected to block 40% of the signal was combined with the concentration of the other cannabinoid expected to inhibit 10%, the CBGA concentration expected to block 30% of the signal was combined with the concentration of the other cannabinoid expected to inhibit 20%, and so on). Simple additivity of cannabinoid pairs would be expected to inhibit the Ca^2+ signal by 50%. All the data in these experiments represent an average of 3 independent runs and the values are graphed as mean values±SEM.

[8] = U-937, read-out: IC50 SOCE U937, Table 5, individual cannabinoids, U937
[9] = RBL-2H3, read-out: IC50 SOCE RBL-2H3, Table 5, individual cannabinoids, RBL-2H3
[10] = Jurkat, read-out: IC50 SOCE Jurkat, Table 5, individual cannabinoids, Jurkat
[11] = HEK293, read-out: IC50 SOCE HEK-293, Table 5, individual cannabinoids, HEK-293
[12] = U-937, read-out: IC50 SOCE U937
[13] = Jurkat, read-out: IC50 SOCE Jurkat
[14] = RBL-2H3, read-out: IC50 SOCE RBL-2H3
[15] = HEK293, read-out: IC50 SOCE HEK-293

Compound	IC50 [2, 8] [µg/mL]	IC50 [3, 9] [µg/mL]	IC50 [4, 10] [µg/mL]	Combinatory effect on SOCE inhibition when paired with CBGA [4]	IC50 [1, 11] [µg/mL]	IC50 [5] [µg/mL]	further results
CCCCCc1cc(O)c2c(c1)OC(C)(C)[C@@H]1CCC(C(=O)O)=C[C@@H]21 [11-nor-COOH-Δ9-THC, (6aR,10aR)-1-hydroxy-6,6-dimethyl-3-pentyl-6a,7,8,10a-tetrahydro-6H-benzo[c]chromene-9-carboxylic acid]	–	–	–	–	–	–	Inhibitory effect in immune cells compared with non-immune HEK293 cells [1]: selective
CCCCCc1cc(O)c2c(c1)OC(C)(CCC=C(C)C)C=C2 (stereo not drawn) [CBC, 2-methyl-2-(4-methylpent-3-en-1-yl)-7-pentyl-2H-chromen-5-ol]	–	–	–	–	–	–	IC50 SOCE U937 ([2]; Table 5, individual cannabinoids, U937): 40.8 µg/mL (≈ 130 µM); IC50 SOCE RBL-2H3 ([3]; Table 5, individual cannabinoids, RBL-2H3): 26.8 µg/mL (≈ 85.2 µM); IC50 SOCE Jurkat ([4]; Table 5, individual cannabinoids, Jurkat): 13.06 µg/mL (≈ 41.5 µM); IC50 SOCE HEK-293 ([1]; Table 5, individual cannabinoids, HEK-293): 31.6 µg/mL (≈ 100 µM); IC50 SOCE Luva ([5]; Table 5, individual cannabinoids, Luva): >50 µg/mL
CCCCCc1cc2c(c(O)c1C(=O)O)C=C[C@@](C)(CCC=C(C)C)O2 [CBCA, (R)-5-hydroxy-2-methyl-2-(4-methylpent-3-en-1-yl)-7-pentyl-2H-chromene-6-carboxylic acid]	> 50	> 50	1.13 (≈ 3.15 µM)	Simple additive behavior	> 50	29.1 (≈ 81.3 µM)	–
C=C(C)[C@@H]1CCC(C)=C[C@H]1c1c(O)cc(CCCCC)cc1O [CBD, (1′R,2′R)-5′-methyl-4-pentyl-2′-(prop-1-en-2-yl)-1′,2′,3′,4′-tetrahydro-[1,1′-biphenyl]-2,6-diol]	–	2.53 (≈ 8.05 µM)	–	Simple additive behavior	> 50	> 50	Combinatory effect when paired with 2.2 μM CBGA [6]: sub-additive; IC50 [2, 12]: > 50 µg/mL; IC50 ([7]; Homo sapiens, THP-1, read-out: SOCE IC50): > 30 µM; IC50 [4, 13]: 7.42 µg/mL (≈ 23.6 µM); Effect on SOCE (Ca2+ signals), pure compounds [4]: low to no effects; IC50 on SOCE relative to acidic variations [4]: higher IC50 than their acidic variations
C=C(C)[C@@H]1CCC(C)=C[C@H]1c1c(O)cc(CCCCC)c(C(=O)O)c1O [CBDA, (1′R,2′R)-2,6-dihydroxy-5′-methyl-4-pentyl-2′-(prop-1-en-2-yl)-1′,2′,3′,4′-tetrahydro-[1,1′-biphenyl]-3-carboxylic acid]	5.83 (≈ 16.3 µM)	2.4 (≈ 6.69 µM)	4.07 (≈ 11.4 µM)	inhibit less than predicted	16.1 (≈ 45 µM)	5.17 (≈ 14.4 µM)	Combinatory effect on SOCE inhibition when paired with CBGA [7]: sub-additive combinatory effects; Inhibitory effect in immune cells compared with non-immune HEK293 cells [1]: selective
C=C(C)[C@@H]1CCC(C)=C[C@H]1c1c(O)cc(CCC)cc1O [CBDV, (1′R,2′R)-5′-methyl-2′-(prop-1-en-2-yl)-4-propyl-1′,2′,3′,4′-tetrahydro-[1,1′-biphenyl]-2,6-diol]	17.5 (≈ 61.1 µM)	0.17 (≈ 0.594 µM)	6 (≈ 20.9 µM)	inhibit less than predicted	30.2 (≈ 105 µM)	> 50	Inhibitory effect in immune cells compared with non-immune HEK293 cells [1]: selective
C=C(C)[C@@H]1CCC(C)=C[C@H]1c1c(O)cc(CCC)c(C(=O)O)c1O [CBDVA, (1′R,2′R)-2,6-dihydroxy-5′-methyl-2′-(prop-1-en-2-yl)-4-propyl-1′,2′,3′,4′-tetrahydro-[1,1′-biphenyl]-3-carboxylic acid]	–	–	–	inhibit less than predicted	–	8.45 (≈ 25.6 µM)	IC50 [2, 12]: 10.6 µg/mL (≈ 32.2 µM); IC50 [3, 14]: 11.3 µg/mL (≈ 34.3 µM); IC50 [4, 13]: 11.3 µg/mL (≈ 34.2 µM); IC50 [1, 15]: 23.5 µg/mL (≈ 71.2 µM)
CCCc1cc(O)c(C/C=C(\C)CCC=C(C)C)c(O)c1C(=O)O [CBGVA, (E)-3-(3,7-dimethylocta-2,6-dien-1-yl)-2,4-dihydroxy-6-propylbenzoic acid]	2.86 (≈ 8.6 µM)	2.53 (≈ 7.61 µM)	1.15 (≈ 3.46 µM)	Simple additive behavior	4.15 (≈ 12.5 µM)	2.6 (≈ 7.82 µM)	Combinatory effect on SOCE inhibition when paired with CBGA [7]: sub-additive combinatory effects
CCCCCc1cc(O)c2c(c1)O[C@]1(C)CCC3[C@@H]1[C@@H]2C3(C)C (stereo partly drawn) [CBL, (1aS,1a1R,3aR,8bR)-1,1,3a-trimethyl-6-pentyl-1a,1a1,2,3,3a,8b-hexahydro-1H-4-oxabenzo[f]cyclobuta[cd] inden-8-ol]	> 50	> 50	> 50	Simple additive behavior	> 50	> 50	–
CCCCCc1cc2c(c(O)c1C(=O)O)[C@@H]1[C@H]3C(CC[C@@]3(C)O2)C1(C)C (stereo partly drawn) [CBLA, (1aS,1a1R,3aR,8bR)-8-hydroxy-1,1,3a-trimethyl-6-pentyl-1a,1a1,2,3,3a,8b-hexahydro-1H-4-oxabenzo[f]cyclobuta[cd] indene-7-carboxylic acid]	–	–	–	inhibit less than predicted	–	12.4 (≈ 34.5 µM)	IC50 [2, 12]: 28.3 µg/mL (≈ 79 µM); IC50 [3, 14]: 20.9 µg/mL (≈ 58.2 µM); IC50 [4, 13]: 9.29 µg/mL (≈ 25.9 µM); IC50 [1, 15]: > 50 µg/mL
CCCCCc1cc2c(c(O)c1C(=O)O)-c1cc(C)ccc1C(C)(C)O2 [CBNA, 1-hydroxy-6,6,9-trimethyl-3-pentyl-6H-benzo[c]chromene-2-carboxylic acid]	19.2 (≈ 54.1 µM)	> 50	0.99 (≈ 2.79 µM)	Simple additive behavior	22.5 (≈ 63.5 µM)	7.25 (≈ 20.5 µM)	Combinatory effect on SOCE inhibition when paired with CBGA [7]: sub-additive combinatory effects
C=C(C)c1ccc(C)cc1-c1c(O)cc(CCCCC)cc1O [CBND, 5′-methyl-4-pentyl-2′-(prop-1-en-2-yl)-[1,1′-biphenyl]-2,6-diol]	24 (≈ 77.3 µM)	19 (≈ 61.2 µM)	6.7 (≈ 21.6 µM)	Simple additive behavior	32.8 (≈ 106 µM)	> 50	–
CCCCCc1cc(OC)c2c(c1)OC(C)(C)c1ccc(C)cc1-2 [CBNM, 1-methoxy-6,6,9-trimethyl-3-pentyl-6H-benzo[c]chromene]	> 50	> 50	> 50	–	> 50	> 50	–
CCCCCc1cc2c(c(O)c1C(=O)O)[C@@H]1C=C(C)CC[C@H]1C(C)(C)O2 [THCA, (6aR,10aR)-1-hydroxy-6,6,9-trimethyl-3-pentyl-6a,7,8,10a-tetrahydro-6H-benzo[c]chromene-2-carboxylic acid]	8.1 (≈ 22.6 µM)	0.57 (≈ 1.59 µM)	2.23 (≈ 6.22 µM)	Simple additive behavior	17.5 (≈ 48.9 µM)	10.4 (≈ 29 µM)	Combinatory effect on SOCE inhibition when paired with CBGA [7]: sub-additive combinatory effects
CCCc1cc(O)c2c(c1)OC(C)(C)[C@@H]1CCC(C)=C[C@@H]21 [THCV, (6aR,10aR)-6,6,9-trimethyl-3-propyl-6a,7,8,10a-tetrahydro-6H-benzo[c]chromen-1-ol]	> 50	> 50	10.7 (≈ 37.5 µM)	stronger than predicted inhibitions	> 50	> 50	Inhibitory effect in immune cells compared with non-immune HEK293 cells [1]: selective
CCCc1cc2c(c(O)c1C(=O)O)[C@@H]1C=C(C)CC[C@H]1C(C)(C)O2 [THCVA, (6aR,10aR)-1-hydroxy-6,6,9-trimethyl-3-propyl-6a,7,8,10a-tetrahydro-6H-benzo[c]chromene-2-carboxylic acid]	20.2 (≈ 61 µM)	20.2 (≈ 61.2 µM)	0.633 (≈ 1.92 µM)	stronger than predicted inhibitions	21.3 (≈ 64.6 µM)	9.43 (≈ 28.5 µM)	Combinatory effect on SOCE inhibition when paired with CBGA [7]: sub-additive combinatory effects
CCCCCc1cc(O)c2c(c1)OC(C)(C)[C@@H]1CCC(C)=C[C@@H]21 [Δ9-THC, (6aR,10aR)-6,6,9-trimethyl-3-pentyl-6a,7,8,10a-tetrahydro-6H-benzo[c]chromen-1-ol]	> 50	0.97 (≈ 3.08 µM)	> 50	–	> 50	> 50	Effect on SOCE (Ca2+ signals), pure compounds [4]: low to no effects; IC50 on SOCE relative to acidic variations [4]: higher IC50 than their acidic variations

Source: patent US20230172899A1, “CANNABINOID COMPOSITIONS” (priority 2020, published 2023)
